“Also recorded” adds a separate entry of the source. Read-outs that look alike come from different tables or passages of the source.
Experiments:
[1] = Taste panel (Table 1, FIG. 2); settings: for After Taste? (average score) / Bitter? (average score) / Off Taste? (average score) / Pleasant? (average score) / Salty? (average score) / Sweet? (average score): normalized to 100
[2] = Acute oral toxicity testing; assay type: in vivo, Swiss male mice
Method: The isopropyl ester was evaluated for acute oral toxicity in Swiss male mice. The testing parameters were as follows: each test group contained six mice (20-30 grams each); the isopropyl ester was administered in an aqueous solution as a single oral dose of 100 mg/kg and 300 mg/kg; two solvent controls were also administered; the mice were again given food two hours after sample administration.
Body weights were measured on day -3, 0, +7 and +14. Physiological parameters were examined the entire first day, then three times a day through the first week and twice a day for the second week. Blood serum analyses for urea nitrogen and alanine aminotransferase activities were measured on day -3 and day +14. On day 14, a gross necropsy was performed on each mouse.
Blood samples were collected from the tail vein for biochemical testing of serum samples. This procedure virtually eliminated hemolyzed samples.

[3] = Stability in aqueous solution (hplc, ambient temperature); assay type: physicochemical; settings: for degraded at 864 h: 0.05m phosphate buffer, ambient temperature, read-out: degradation
Method: Stability was examined in aqueous solution at various pHs. Solutions (1% w/v) were prepared in 0.05M phosphate buffer adjusted to pH 7.4 and pH 3.5. Storage at ambient temperature over 36 days was monitored by hplc analysis (waters radial-pak reverse phase C-8 column, 25% CH3 CN, 0.05% TFA/H2 O eluant, 210 nm U.V. detection). Aspartame was examined similarly for comparison purposes.

[4] = Comparative taste test, D- versus L-configuration (Table 2, FIG. 3); parameters: Sweet? (average score) / Bitter? (average score) / Salty? (average score) / Off Taste? (average score) / After Taste? (average score): scale not given here
Method: The compounds were dissolved in distilled water at the concentrations specified in Table 2. Solutions were made up and kept overnight in a refrigerator. The following day, they were poured into individual graduated plastic cups (10 ml per cup) and allowed to warm to room temperature. A taste panel was convened and testing begun that same day. Tasting and evaluation was done by the standard protocol developed by Dr. Robert Gesteland of Taste and Smell Consulting Group, Inc.
The first solution tasted (reference standard for the panel) was 0.25M sucrose. Other solutions were tasted in radomized fashion. The random order was arrived at as follows:
i. An ordered list of the compounds and concentrations was prepared (26 solutions in all).
ii. 0.25M sucrose was designated as 1.
iii. A standard table of random numbers was used in which the numbers were grouped as two-digit numbers. A point in the table was chosen at random (blind pointing). The first solution in the list was given the first random number in the sequence (read right-to-left, up-to-down) which is between 2 and 26. The second solution in the list was given the next random number in the sequence between 2 and 26, etc. Repeat numbers were ignored.
iv. Solutions were then labeled A (for number 1) B (for random number 2), C-Z.
v. Panelists were instructed to taste the solutions in alphabetical order.
With the assistance of Taste and Smell Consulting Group, Inc., taste panel members were trained adn tested for their ability to discriminate sucrose solutions of varying concentrations. In summary it may be stated that all 9 panel members had acceptble correlation scores. Their results were in good agreement with those which have been previously reported in siilar types of studies. For the test series the correlations for each panelist for sucrose and aspartame were acceptable as were the overall results obtained by averaging individual scores. The results of the taste panel are set forth in Table 2 wherein the parenthetical figures represent the standard error values for the number above.

[5] = test system: five Salmonella strains; assay: Ames/Salmonella mutagenicity assay; assay type: cell-based; settings: 0.3-3000 ug/plate, with and without S9; toxicity at the two highest doses
Method: The isopropyl ester was tested for mutuagenic potential in the Ames assay employing: (1) five Salmonella strains which detect frameshift mutagens or base-pair substitution mutagens, (2) both the presence and absence of mammalian S9 microsomal liver fraction as the metabolic activator, which differentiate promutagens from direct-acting mutagens, (3) five dose levels (3000, 300, 30, 3, 0.3 ug/plate), and (4) three plates per dose. The compound was also tested for toxicity, with and without S9 activation, at the two highest doses. […] Positive controls and spontaneous background revertants were within acceptable ranges.

[6] = neonatal mice; cited from earlier work
[7] = monkeys; cited from earlier work
[8] = cited from earlier work
[9] = single oral dose 100 and 300 mg/kg, 14 days

For CC(C)OC(=O)[C@@H](C)NC(=O)C(N)C(=O)O (mixture of isomers) [Compound (8), DL-Aminomalonyl-D-Alanine Isopropyl Ester], the “After Taste? (average score)” value ([1]; 0.8621 Millimolar) was 4, the “Bitter? (average score)” value ([1]; 0.8621 Millimolar) was 7 and the “Off Taste? (average score)” value ([1]; 0.8621 Millimolar) was 13. The “Pleasant? (average score)” value ([1]; 0.8621 Millimolar) was -11, the “Salty? (average score)” value ([1]; 0.8621 Millimolar) was 21 and the “Sweet? (average score)” value ([1]; 0.8621 Millimolar) was 4. The “After Taste? (average score)” value ([1]; 3.0172 Millimolar) was 6, the “Bitter? (average score)” value ([1]; 3.0172 Millimolar) was 3 and the “Off Taste? (average score)” value ([1]; 3.0172 Millimolar) was 2. For the same molecule, the “Pleasant? (average score)” value ([1]; 3.0172 Millimolar) was 13, the “Salty? (average score)” value ([1]; 3.0172 Millimolar) was 5 and the “Sweet? (average score)” value ([1]; 3.0172 Millimolar) was 32. The “After Taste? (average score)” value ([1]; 9.0517 Millimolar) was 4, the “Bitter? (average score)” value ([1]; 9.0517 Millimolar) was 1 and the “Off Taste? (average score)” value ([1]; 9.0517 Millimolar) was 3. The “Pleasant? (average score)” value ([1]; 9.0517 Millimolar) was 34, the “Salty? (average score)” value ([1]; 9.0517 Millimolar) was 3 and the “Sweet? (average score)” value ([1]; 9.0517 Millimolar) was 61. For the same molecule, the “aftertaste / side tastes” value ([1]; compared to saccharin) was “does not possess a "metallic" aftertaste, and there are virtually no detracting side tastes”, the “sweetness potency (reciprocal of concentration required for a score of 50)” value ([1]; sucrose=1.0, weight scale) was 58 and the “onset and decay of sweet taste” value ([1]; taste panel) was “rapid onset and a rapid decay of sweet taste”. The “taste quality” value ([1]; taste panel) was “uncommon sucrose-like sweet taste that is free of detracting side and after tastes; also recorded: sweet and pleasant”, the “sweetness relative to aspartame” value ([1]; weight basis) was “about half as sweet as aspartame” and the “times sweeter than sucrose” value ([1]; weight basis) was 58 times. The gross necropsy ([2]; day 14, 100 and 300 mg/kg oral) was “No toxic effects were detected”, the “kidney and liver toxicity” value ([2]; from serum urea nitrogen and alanine aminotransferase, 100 and 300 mg/kg oral) was “absence of kidney and liver toxicity” and the “serum urea nitrogen and alanine aminotransferase activity” value ([2]; post-study samples, 100 or 300 mg/kg oral) was “Neither elevated serum urea nitrogen nor elevated alanine aminotransferase activity were detected”. For the same molecule, the “behavioral or pharmacological effects” value ([2]; single oral dose 100 and 300 mg/kg) was “no behavioral or pharmacological effects were observed”, the body weights ([2]; single oral dose 100 and 300 mg/kg, 14-day study) was “normal” and the acute oral toxicity [2, 9] was “no toxic effect; also recorded: nontoxic at all doses tested”. The eating or drinking [2, 9] was “no excessive eating or drinking”, the degraded at 864 h ([3]; pH 3.5, 36 days) was less than 5% and the degraded at 864 h ([3]; pH 7.4 buffer, 36 days) was 70%. The “improvement in stability relative to aspartame” value ([3]; pH 3.5, 36 days) was “ten fold improvement in stability”, the “sweet taste (words)” value [4] was “sweet” and the “After Taste? (average score)” value ([4]; 0.0431 Millimolar) was 0. The “Bitter? (average score)” value ([4]; 0.0431 Millimolar) was 1, the “Off Taste? (average score)” value ([4]; 0.0431 Millimolar) was 2 and the “Pleasant? (average score)” value ([4]; 0.0431 Millimolar) was 15. The “Salty? (average score)” value ([4]; 0.0431 Millimolar) was 1, the “Sweet? (average score)” value ([4]; 0.0431 Millimolar) was 2 and the “After Taste? (average score)” value ([4]; 0.4307 Millimolar) was 7. The “Bitter? (average score)” value ([4]; 0.4307 Millimolar) was 12, the “Off Taste? (average score)” value ([4]; 0.4307 Millimolar) was 8 and the “Pleasant? (average score)” value ([4]; 0.4307 Millimolar) was 10. The “Salty? (average score)” value ([4]; 0.4307 Millimolar) was 11, the “Sweet? (average score)” value ([4]; 0.4307 Millimolar) was 1 and the “After Taste? (average score)” value ([4]; 4.3066 Millimolar) was 5. The “Bitter? (average score)” value ([4]; 4.3066 Millimolar) was 0, the “Off Taste? (average score)” value ([4]; 4.3066 Millimolar) was 3 and the “Pleasant? (average score)” value ([4]; 4.3066 Millimolar) was 24. The “Salty? (average score)” value ([4]; 4.3066 Millimolar) was 12, the “Sweet? (average score)” value ([4]; 4.3066 Millimolar) was 28 and the “mutagenic potential and toxicity in Ames assay” value [5] was “neither mutagenic potential nor toxicity”.

For N[C@@H](CC(=O)O)C(=O)O [aspartic acid], the brain lesions [6] is given as “causes brain lesions in neonatal mice”.

In the case of N[C@@H](Cc1ccccc1)C(=O)O [phenylalanine], the grand mal-type seizures [7] is listed as “reported to induce grand mal-type seizures in monkeys”, the “behavioral changes and brain chemistry” value ([8]; in vivo) is listed as “induce behavioral changes, and alter brain chemistry” and the birth defects ([8]; pregnant women with phenylketonuria) is listed as “produce birth defects in pregnant women with phenylketonuria”.

— US4714619A, “Aminomalonyl alanine compounds as dietary sweeteners” (priority 1986, dated 1987)
